Consider 7 compounds from PubChem BioAssay (NCI).

Test systems include U251 CNS; SNB-19 CNS; IGROV1 ovarian; UO-31 renal; NCI-H522 lung; NCI-H226 lung; RPMI-8226 leukemia; PC-3 prostate; NCI-H460 lung; M14 melanoma.
What all share (test): inhibition of tumour cell growth, NCI panel, 48 h

“And” between values parts separate entries of the source, which are not always exact repeats. Identical values can stand only once.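 Test compounds were applied to cells in 96-well plates for 48 hours at 5 doses. Here, GI50 denotes the concentration required for 50% inhibition of growth. TGI is the concentration that stops growth completely.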

Consider `CC/C=C\C[C@H](O)C/C=C1/C(=O)C=C[C@@H]1C/C=C\CCCC(=O)OC(C)C`, for which the GI50 in the assay on U251 CNS was 0.48 µM; in the assay with SNB-19 CNS it was 3.3 µM; in the assay with IGROV1 ovarian it was 2.43 µM; with UO-31 renal it was 1.84 µM; in the assay with NCI-H522 lung, 1.25 µM; with NCI-H226 lung, 2.58 µM. Moreover, the GI50 was 0.371 µM in the assay with RPMI-8226 leukemia, 1.58 µM in the assay with PC-3 prostate, 1.68 µM in the assay on NCI-H460 lung and 0.79 µM in the assay on M14 melanoma. Besides, the TGI stood at 1.74 µM in the assay with U251 CNS; 12.8 µM in the assay with SNB-19 CNS; 7.75 µM in the assay on IGROV1 ovarian; 3.84 µM in the assay on UO-31 renal; 2.88 µM with NCI-H522 lung; 6.08 µM with NCI-H226 lung. For the same compound, the TGI with RPMI-8226 leukemia was found to be 0.939 µM; with PC-3 prostate, 3.49 µM; with NCI-H460 lung, 3.97 µM; in the assay on M14 melanoma, 3.17 µM.
For `C=C1C(=O)O[C@H]2[C@H]1CC/C(COC(=O)c1cn(C)c3ccccc13)=C\CC[C@@]1(C)O[C@@H]21`, the GI50 in the assay on U251 CNS is 1.42 µM; with SNB-19 CNS, 1.59 µM; with IGROV1 ovarian, 0.692 µM; with UO-31 renal, 0.775 µM; in the assay on NCI-H522 lung, 0.399 µM; with NCI-H226 lung, 1.48 µM. For the same compound, the GI50 with RPMI-8226 leukemia is 0.217 µM; in the assay on PC-3 prostate, 1.47 µM; in the assay on NCI-H460 lung it was 1.73 µM; with M14 melanoma, 1.41 µM. The TGI with U251 CNS was 2.77 µM; with SNB-19 CNS, 3.64 µM; in the assay with IGROV1 ovarian it was 2.58 µM; in the assay on UO-31 renal, 2.1 µM; in the assay with NCI-H522 lung it was 1.62 µM; in the assay on NCI-H226 lung, 3.26 µM. Moreover, the TGI with RPMI-8226 leukemia stood at 0.665 µM; in the assay on PC-3 prostate, 4.29 µM; in the assay on NCI-H460 lung, 3.92 µM; in the assay on M14 melanoma, 3.3 µM.
Take `COC(NC(N)=O)C(=O)O` (stereo not given): the TGI with U251 CNS, with SNB-19 CNS, in the assay on IGROV1 ovarian, in the assay with UO-31 renal, in the assay on NCI-H522 lung and in the assay on NCI-H226 lung was more than 100 µM each time. Besides, the TGI in the assay with RPMI-8226 leukemia, with PC-3 prostate, in the assay with NCI-H460 lung and in the assay on M14 melanoma was more than 100 µM throughout.
With `COc1cccc(OC(=O)c2ccc(C(F)(F)F)nc2Nc2c(C)cccc2Cl)c1`, the GI50 with U251 CNS was 19.1 µM; with SNB-19 CNS, 22.4 µM; with IGROV1 ovarian, 15.1 µM; in the assay with UO-31 renal, 15.1 µM; in the assay on NCI-H522 lung, 16 µM; with NCI-H226 lung, 47.7 µM. Also, the GI50 in the assay with RPMI-8226 leukemia was 35.8 µM; with PC-3 prostate, 20 µM; in the assay on NCI-H460 lung, 26.4 µM; in the assay on M14 melanoma, 38.9 µM. For the same compound, the TGI is 40.6 µM with U251 CNS; 73.5 µM in the assay with SNB-19 CNS; 43.3 µM in the assay on IGROV1 ovarian; 32 µM in the assay on UO-31 renal; 38.3 µM with NCI-H522 lung; more than 100 µM in the assay with NCI-H226 lung. In addition, the TGI with RPMI-8226 leukemia was more than 100 µM; in the assay with PC-3 prostate, 47.1 µM; in the assay with NCI-H460 lung it was more than 100 µM; with M14 melanoma it was more than 100 µM.
Regarding `COc1cccc(-n2ncc3c(N/N=C/c4ccc(C)cc4)ncnc32)c1`, the GI50 in the assay on U251 CNS, in the assay on SNB-19 CNS, in the assay with IGROV1 ovarian, in the assay on UO-31 renal, with NCI-H522 lung and in the assay with NCI-H226 lung was more than 25 µM throughout. Further, the GI50 with RPMI-8226 leukemia, in the assay with PC-3 prostate, with NCI-H460 lung and in the assay with M14 melanoma was more than 25 µM in each case. The TGI in the assay with U251 CNS, in the assay with SNB-19 CNS, in the assay with IGROV1 ovarian, with UO-31 renal, with NCI-H522 lung and with NCI-H226 lung was more than 25 µM throughout. The TGI in the assay on RPMI-8226 leukemia, with PC-3 prostate, with NCI-H460 lung and with M14 melanoma was more than 25 µM in each case.
For `CN(C)c1ccc(C(=N)c2ccc(N(C)C)cc2)cc1`, the GI50 in the assay with U251 CNS was 3.54 µM and 3.11 µM; in the assay on SNB-19 CNS, 4.38 µM and 16 µM; with IGROV1 ovarian it was 3.45 µM and 7.32 µM; in the assay on UO-31 renal, 3.65 µM and 5.86 µM; in the assay with NCI-H522 lung, 0.503 µM and 1.16 µM; in the assay on NCI-H226 lung it was 7.81 µM and 9.07 µM. Further, the GI50 with RPMI-8226 leukemia was 1.8 µM and 2.28 µM; in the assay on PC-3 prostate, 3.75 µM and 3.74 µM; in the assay with NCI-H460 lung, 3.01 µM and 3.54 µM; in the assay with M14 melanoma, 2.13 µM and 2.95 µM. Moreover, the TGI in the assay with U251 CNS is 18.9 µM and 17.7 µM; in the assay with SNB-19 CNS, more than 100 µM; with IGROV1 ovarian, 31.7 µM and > 100 µM; in the assay on UO-31 renal it was 32 µM and > 100 µM; in the assay on NCI-H522 lung, 5.01 µM and 9.45 µM; in the assay on NCI-H226 lung it was 51.6 µM and 47.2 µM. Further, the TGI in the assay with RPMI-8226 leukemia was 7.43 µM and 10.9 µM; with PC-3 prostate it was 36.2 µM and > 100 µM; in the assay with NCI-H460 lung, 12.6 µM and 20 µM; in the assay with M14 melanoma it was 10.8 µM and 16.8 µM.
`O=C1/C(=C/c2ccc(F)c(F)c2)CN(C(=O)C(Cl)Cl)C/C1=C\c1ccc(F)c(F)c1`: the GI50 in the assay with U251 CNS was 0.0331 µM; with SNB-19 CNS, 0.0782 µM; in the assay on IGROV1 ovarian, 0.0609 µM; in the assay with UO-31 renal, 0.0982 µM; with NCI-H522 lung it was 0.166 µM; with NCI-H226 lung it was 1.13 µM. The GI50 is 0.0186 µM with RPMI-8226 leukemia, 0.0477 µM with PC-3 prostate, 0.134 µM with NCI-H460 lung and 0.168 µM with M14 melanoma. Further, the TGI with U251 CNS is 0.131 µM; in the assay on SNB-19 CNS, 0.274 µM; in the assay on IGROV1 ovarian, 0.264 µM; with UO-31 renal it was 0.238 µM; with NCI-H522 lung it was 0.503 µM; with NCI-H226 lung it was 5.72 µM. Also, the TGI was determined as 0.0871 µM in the assay with RPMI-8226 leukemia, 0.273 µM in the assay with PC-3 prostate, 0.444 µM in the assay on NCI-H460 lung and 0.515 µM with M14 melanoma.
